# Literature values, collected in US20050203062A1, “Use of tagatose in laxatives” (Spherix Incorporated, priority 2002, published 2005).
# Key:
# [1] = amounts approaching 30 or 40 grams per day
# Type 2 diabetes = conditions: clinical trials
smiles,measurement,setting,value
"O=C(CO)[C@@H](O)[C@@H](O)[C@H](O)CO [tagatose, D-tagatose]",rise in blood glucose,blood glucose; after tagatose itself,does not produce a rise in blood glucose
same,rise in blood glucose from subsequent intake of glucose-producing foods,blood glucose; subsequent intake of glucose-producing foods,blunts the rise in blood glucose
same,laxation effect,[1],known to have a Taxation effect
same,treatment of Type 2 diabetes,Type 2 diabetes,effective treatment for Type 2 diabetes
